Here are results for twelve compounds from US20050101595A1, “N-containing cycloalkyl-substituted amino-thiazole derivatives and pharmaceutical compositions for inhibiting cell proliferation and methods for their use” (PFIZER INC., priority 2003, published 2005).

The target of experiment [1] is human CDK4 and genetically truncated (1-264) cyclin D3 (Homo sapiens, UniProt P11802). Description: Inhibition of CDK4/Cyclin D Retinoblastoma Kinase Activity. The settings on record: for Ki: apparent Ki, CDK4/truncated cyclin D3, Rb fragment substrate, 25 μM ATP. It counts as biochemical. Summed up:
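The enzyme complex (5 nM), expressed in co-infected insect cells, was incubated with recombinant Rb fragment, 25 μM radiolabelled ATP and 2% DMSO at 30 °C. Reactions were stopped with EDTA after 20 minutes, or 60 minutes for tight-binding inhibitors. Apparent Ki values came from competitive inhibition fits.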

Another experiment relates to HCT-116 cell line. Description: Inhibition of cell growth, tetrazolium salt (MTT) assay. The settings on record: for IC50: Homo sapiens, HCT-116, 120 h, MTT, three to five days, read-out: HCT-116 IC50; for HCT-116 % Inhibition at 0.25 μM: 0.25 μM compound. The format is cell-based. In outline:
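Growth inhibition is scored relative to cells receiving only 0.5% (v/v) DMSO. Plated cells rest 4 h, then take compound for three to five days at 37° C; MTT reduction to formazan is read at 540 nm.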

Another experiment concerns the target CDK2/Cyclin A (Homo sapiens, UniProt P24941). Briefly: Inhibition of CDK2/Cyclin A Retinoblastoma Kinase Activity. The format is biochemical. The settings on record: for Ki: apparent Ki, CDK2/proteolyzed cyclin A, Rb fragment substrate, 25 μM ATP. In outline:
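CDK2 (10 or 19 nM), insect-cell expressed, gel-filtration purified with truncated cyclin A; Rb fragment substrate; 25 μM ATP; 10 mM HEPES pH 7.4, 10 mM MgCl2; 30° C, 60 or 75 min; EDTA stop; phosphocellulose/nitrocellulose capture, phosphorimager. % inhibition vs DMSO control, no-enzyme background subtracted.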

Setting [2] is: 0.1 μM compound, HCT-116, Table 4.

Structures are written as SMILES. Where a name gives a salt, the structure may show the parent alone. Read-outs that look alike come from different tables or passages of the source.

human CDK4 and genetically truncated (1-264) cyclin D3, sequence (P11802 whole entry, the tested form may be a part): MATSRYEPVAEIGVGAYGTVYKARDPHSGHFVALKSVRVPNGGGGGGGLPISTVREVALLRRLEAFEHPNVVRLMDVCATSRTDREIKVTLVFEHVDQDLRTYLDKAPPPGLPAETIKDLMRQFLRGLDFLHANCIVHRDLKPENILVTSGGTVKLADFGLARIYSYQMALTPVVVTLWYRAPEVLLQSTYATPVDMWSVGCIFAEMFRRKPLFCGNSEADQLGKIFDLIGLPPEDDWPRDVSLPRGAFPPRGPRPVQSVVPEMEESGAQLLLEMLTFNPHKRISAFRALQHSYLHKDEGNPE
human CDK4 and genetically truncated (1-264) cyclin D3, sequence (P30281 1-264 partner): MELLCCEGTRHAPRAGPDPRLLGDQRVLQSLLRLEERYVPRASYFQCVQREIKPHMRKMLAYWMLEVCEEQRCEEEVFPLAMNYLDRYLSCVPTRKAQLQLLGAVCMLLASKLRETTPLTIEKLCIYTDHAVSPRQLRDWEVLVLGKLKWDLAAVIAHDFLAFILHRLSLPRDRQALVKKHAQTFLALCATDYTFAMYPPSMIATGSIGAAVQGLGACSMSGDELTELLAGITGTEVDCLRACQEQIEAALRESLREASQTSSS

Take `Nc1nc(NC2CCN(S(=O)(=O)c3ccc(N4CCOCC4)nc3)CC2)sc1C(=O)c1c(F)cccc1F` [Example F20, 1-{4-Amino-2-[1-(6-morpholin-4-yl-pyridine-3-sulfonyl)-piperidin-4-ylamino]-thiazol-5-yl}-1-(2,6-difluoro-phenyl)-methanone Hydrochloride]: the figures for the Ki (in experiment [1]; at CDK2/Cyclin A) were 0.0013 µM and 0.0014 µM, respectively. Also, the IC50 (usually the concentration that inhibits the measured activity by half) in the experiment with HCT-116 cell line (first HCT-116 column (c4)) turned out to be 0.17 µM; with HCT-116 cell line (second HCT-116 column (c5)) it was 1.3 µM.

Turning to `CN(C)C(=O)N1CCC(Nc2nc(N)c(C(=O)c3c(F)cccc3F)s2)CC1` [Example Q2], the “CDK4 % Inhibition at 0.03 μM” value in experiment [1] (0.03 μM compound, Table 4) is 13%. Also, in the experiment with HCT-116 cell line (setting [2]), the “HCT-116 % Inhibition at 0.1 μM” value was determined as 0.71%. Besides, the “HCT-116 % Inhibition at 0.25 μM” value with HCT-116 cell line (HCT-116, Table 4) amounted to 43%. For the same compound, the “CDK2 % Inhibition at 0.03 μM” value at CDK2/Cyclin A (0.03 μM compound, Table 4) is reported as −43%.

With `COc1cc(OC)cc(C(=O)N2CCC(Nc3nc(N)c(C(=O)c4c(F)cccc4F)s3)CC2)c1` [Example R137], in experiment [1] (at 0.03 μM), the “CDK4 % Inhibition at 0.03 μM” value worked out at 73%. In addition, in the experiment on HCT-116 cell line (HCT-116 cells, at 0.1 μM), the “HCT-116 % Inhibition at 0.1 μM” value was 0%. Besides, the “HCT-116 5 Inhibition at 0.25 μM” value in the experiment on HCT-116 cell line (HCT-116 cells) was determined as 38. Also, the “CDK2 % Inhibition at 0.03 μM” value on CDK2/Cyclin A (at 0.03 μM) was 55%.

Regarding `Nc1nc(NC2CCN(C(=O)CC3CCCC3)CC2)sc1C(=O)c1c(F)cccc1F` [Example R78], the “CDK4 % Inhibition at 0.03 μM” value in experiment [1] (at 0.03 μM) amounted to 19%. Further, the “HCT-116 % Inhibition at 0.1 μM” value with HCT-116 cell line (HCT-116 cells, at 0.1 μM) is listed as 0%. The “HCT-116 5 Inhibition at 0.25 μM” value with HCT-116 cell line (HCT-116 cells) is given as 47. Also, the “CDK2 % Inhibition at 0.03 μM” value at CDK2/Cyclin A (at 0.03 μM) came to 20%.

For `COc1ccccc1C(=O)N1CCC(Nc2nc(N)c(C(=O)c3c(F)cccc3F)s2)CC1` [Example Q15], in experiment [1] (0.03 μM compound, Table 4), the “CDK4 % Inhibition at 0.03 μM” value is listed as 52%. In addition, in the experiment with HCT-116 cell line (setting [2]), the “HCT-116 % Inhibition at 0.1 μM” value is recorded as 9%. Also, the “HCT-116 % Inhibition at 0.25 μM” value with HCT-116 cell line (HCT-116, Table 4) came out at 45%. In addition, the “CDK2 % Inhibition at 0.03 μM” value on CDK2/Cyclin A (0.03 μM compound, Table 4) is recorded as 25%.

In the case of `N#Cc1ccc(NC(=O)N2CCC(Nc3nc(N)c(C(=O)c4c(F)cccc4F)s3)CC2)cc1` [Example O56], the “CDK4 % Inhibition at 0.03 μM” value in experiment [1] (0.03 μM compound, Table 2) is 9%. Also, in the experiment with HCT-116 cell line (HCT-116, Table 2), the “HCT-116 % Inhibition at 0.25 μM” value was found to be 37%. In addition, the “CDK2 % Inhibition At 0.03 μM” value on CDK2/Cyclin A (0.03 μM compound, Table 2) is 29%.

Regarding `Nc1nc(NC2CCN(S(=O)(=O)CCc3ccncc3)CC2)sc1C(=O)c1c(F)cccc1F` [Example F27, 1-{4-Amino-2-[1-(2-pyridin-4-yl-ethanesulfonyl)-piperidin-4-ylamino]-thiazol-5-yl}-1-(2,6-difluoro-phenyl)-methanone], the values for the Ki (in experiment [1]; at CDK2/Cyclin A) were 0.0068 µM and 0.032 µM, respectively. The IC50 came to 1 µM in the experiment on HCT-116 cell line (first HCT-116 column (c4)) and 5 µM with HCT-116 cell line (second HCT-116 column (c5)).

For `CC[C@@H](NCCS(=O)(=O)N1CCC(Nc2nc(N)c(C(=O)c3c(F)cccc3F)s2)CC1)c1ccccc1` [Example K46, (4-Amino-2-{1-[2-(1 R-phenyl-propylamino)-ethanesulfonyl]-piperidin-4-ylamino}-thiazol-5-yl)-(2,6-difluoro-phenyl)-methanone], the figures for the Ki (in experiment [1]; at CDK2/Cyclin A) were 0.0021 µM and 0.00081 µM, respectively. For the same compound, the values for the half-maximal inhibitory concentration (IC50) in the experiment on HCT-116 cell line (first HCT-116 column (c4)) and with HCT-116 cell line (second HCT-116 column (c5)) were 0.13 µM and 0.26 µM, respectively.

Take `CN1CCCC1c1ccc(S(=O)(=O)N2CCC(Nc3nc(N)c(C(=O)c4c(F)cccc4F)s3)CC2)cc1` (centres unmarked) [Example F24, 1-[4-Amino-2-{1-[4-(1-methyl-pyrrolidin-2-y)-benzenesulfonyl]-piperidin-4-ylamino}-thiazol-5-yl)-1-(2,6-difluoro-phenyl)-methanone Dihydrochloride]: the values for the Ki (in experiment [1]; at CDK2/Cyclin A) were 0.00034 µM and less than 0.001 µM, respectively. For the same compound, the results for the half-maximal inhibitory concentration (IC50) in the experiment with HCT-116 cell line (first HCT-116 column (c4)) and in the experiment with HCT-116 cell line (second HCT-116 column (c5)) were 0.59 µM and 1.6 µM, respectively.

Consider `Nc1nc(NC2CCN(C(=O)c3ccccc3Cl)CC2)sc1C(=O)c1c(F)cccc1F` [Example Q13], for which the “CDK4 % Inhibition at 0.03 μM” value in experiment [1] (0.03 μM compound, Table 4) is 48%. For the same compound, the “HCT-116 % Inhibition at 0.1 μM” value in the experiment with HCT-116 cell line (setting [2]) came out at 5%. Moreover, the “HCT-116 % Inhibition at 0.25 μM” value in the experiment on HCT-116 cell line (HCT-116, Table 4) is 43%. For the same compound, the “CDK2 % Inhibition at 0.03 μM” value on CDK2/Cyclin A (0.03 μM compound, Table 4) is reported as 13%.

Turning to `Cn1cncc1-c1ccc(S(=O)(=O)N2CCC(Nc3nc(N)c(C(=O)c4c(F)cccc4F)s3)CC2)cc1` [Example F32, 1-(4-Amino-2-{1-[4-(3-methyl-3H-imidazol-4-yl)-benzenesulfonyl]-piperidin-4-ylamino}-thiazol-5-yl)-1-(2,6-difluoro-phenyl)-methanone Trifluoroacetic Acid Salt], the Ki in experiment [1] is 0.0009 µM; at CDK2/Cyclin A, 0.0004 µM. In addition, the 50% inhibitory concentration (IC50) in the experiment with HCT-116 cell line (first HCT-116 column (c4)) came out at 0.11 µM; in the experiment on HCT-116 cell line (second HCT-116 column (c5)), 0.38 µM.

With `Cc1noc(C)c1S(=O)(=O)N1CCC(Nc2nc(N)c(C(=O)c3c(F)cccc3F)s2)CC1` [Example F1], the Ki was 0.014 µM in experiment [1] and 0.012 µM on CDK2/Cyclin A. Moreover, the results for the 50% inhibitory concentration (IC50) in the experiment with HCT-116 cell line (first HCT-116 column (c4)) and in the experiment with HCT-116 cell line (second HCT-116 column (c5)) were 1.4 µM and 4.5 µM, respectively.
